Experimental data reported in publication PMC8468039, “Development of New Meridianin/Leucettine-Derived Hybrid Small Molecules as Nanomolar Multi-Kinase Inhibitors with Antitumor Activity” (Biomedicines, 2021).

How the values were obtained:
Assay in all cases: In vitro kinase inhibition assay (HotSpot, Reaction Biology)
Assay type in all cases: biochemical
JAK3 = target: T1, JAK3 (Homo sapiens, UniProt P52333); conditions: single dose of 10 µM; read-out: Percent Inhibition, JAK3
T1 construct: purchased Reaction Biology Corp
T1 sequence (P52333 whole entry): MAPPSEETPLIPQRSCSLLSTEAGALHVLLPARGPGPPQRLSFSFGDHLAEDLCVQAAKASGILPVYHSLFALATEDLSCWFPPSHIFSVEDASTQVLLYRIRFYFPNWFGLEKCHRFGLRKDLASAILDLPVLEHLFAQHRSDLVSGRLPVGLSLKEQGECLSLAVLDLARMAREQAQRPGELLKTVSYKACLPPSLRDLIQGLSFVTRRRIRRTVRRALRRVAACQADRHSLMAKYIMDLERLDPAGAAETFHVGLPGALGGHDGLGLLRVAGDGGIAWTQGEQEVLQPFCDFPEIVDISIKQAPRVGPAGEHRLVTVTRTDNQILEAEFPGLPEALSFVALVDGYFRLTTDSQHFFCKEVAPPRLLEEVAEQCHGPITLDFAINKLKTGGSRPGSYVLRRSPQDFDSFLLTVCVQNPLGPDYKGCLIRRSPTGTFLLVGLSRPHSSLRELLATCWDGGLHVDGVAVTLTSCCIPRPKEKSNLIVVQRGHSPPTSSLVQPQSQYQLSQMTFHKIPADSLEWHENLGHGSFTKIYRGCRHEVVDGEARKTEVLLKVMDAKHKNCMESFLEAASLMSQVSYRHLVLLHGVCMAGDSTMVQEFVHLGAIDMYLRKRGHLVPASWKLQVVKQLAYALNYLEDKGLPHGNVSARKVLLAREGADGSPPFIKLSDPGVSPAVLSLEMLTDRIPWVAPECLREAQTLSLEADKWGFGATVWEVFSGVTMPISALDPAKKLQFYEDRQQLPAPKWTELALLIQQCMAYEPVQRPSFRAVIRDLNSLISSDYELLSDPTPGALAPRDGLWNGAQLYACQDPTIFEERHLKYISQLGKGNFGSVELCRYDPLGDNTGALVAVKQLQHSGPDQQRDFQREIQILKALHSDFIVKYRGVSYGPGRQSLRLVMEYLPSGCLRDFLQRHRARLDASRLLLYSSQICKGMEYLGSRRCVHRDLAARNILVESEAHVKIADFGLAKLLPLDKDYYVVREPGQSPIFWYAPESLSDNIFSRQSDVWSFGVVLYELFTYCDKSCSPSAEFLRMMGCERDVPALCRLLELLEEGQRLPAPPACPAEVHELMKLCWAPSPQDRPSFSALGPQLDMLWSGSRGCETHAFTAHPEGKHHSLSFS

c-MER = target: T2, c-MER (Homo sapiens, UniProt Q12866); conditions: single dose of 10 µM; 10 µM ATP as printed; read-out: Percent Inhibition, c-MER
T2 construct: purchased Reaction Biology Corp
T2 sequence (Q12866 21-999): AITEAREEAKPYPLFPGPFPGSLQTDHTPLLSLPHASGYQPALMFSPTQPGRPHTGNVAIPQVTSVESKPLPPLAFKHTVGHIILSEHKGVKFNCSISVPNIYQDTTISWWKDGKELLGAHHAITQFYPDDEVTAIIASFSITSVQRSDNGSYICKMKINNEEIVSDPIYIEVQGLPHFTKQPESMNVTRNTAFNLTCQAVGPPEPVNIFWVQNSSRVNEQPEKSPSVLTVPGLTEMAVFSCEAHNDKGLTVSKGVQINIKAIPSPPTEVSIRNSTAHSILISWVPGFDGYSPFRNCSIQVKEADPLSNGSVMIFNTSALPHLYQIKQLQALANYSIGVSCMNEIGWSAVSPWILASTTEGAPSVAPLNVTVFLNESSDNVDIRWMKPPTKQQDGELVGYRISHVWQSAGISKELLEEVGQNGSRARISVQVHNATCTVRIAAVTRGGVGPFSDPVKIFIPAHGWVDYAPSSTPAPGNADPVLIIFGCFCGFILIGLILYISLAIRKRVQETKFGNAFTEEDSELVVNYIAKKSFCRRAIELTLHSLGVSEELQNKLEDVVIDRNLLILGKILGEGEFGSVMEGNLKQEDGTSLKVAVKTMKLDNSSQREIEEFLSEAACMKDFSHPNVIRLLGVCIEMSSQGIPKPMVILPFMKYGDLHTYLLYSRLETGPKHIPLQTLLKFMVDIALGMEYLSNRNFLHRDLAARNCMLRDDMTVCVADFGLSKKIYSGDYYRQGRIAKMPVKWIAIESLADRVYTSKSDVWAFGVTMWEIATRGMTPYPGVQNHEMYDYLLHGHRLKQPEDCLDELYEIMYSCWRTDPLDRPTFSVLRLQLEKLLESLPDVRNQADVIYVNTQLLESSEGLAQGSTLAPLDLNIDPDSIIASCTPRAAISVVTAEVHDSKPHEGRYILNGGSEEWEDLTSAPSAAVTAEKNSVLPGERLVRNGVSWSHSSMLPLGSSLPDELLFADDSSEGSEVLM

FLT1/VEGFR1 = target: T3, FLT1/VEGFR1 (Homo sapiens, UniProt P17948); conditions: single dose of 10 µM; 10 µM ATP as printed; read-out: Percent Inhibition, FLT1/VEGFR1
T3 construct: purchased Reaction Biology Corp
T3 sequence (P17948 27-1338): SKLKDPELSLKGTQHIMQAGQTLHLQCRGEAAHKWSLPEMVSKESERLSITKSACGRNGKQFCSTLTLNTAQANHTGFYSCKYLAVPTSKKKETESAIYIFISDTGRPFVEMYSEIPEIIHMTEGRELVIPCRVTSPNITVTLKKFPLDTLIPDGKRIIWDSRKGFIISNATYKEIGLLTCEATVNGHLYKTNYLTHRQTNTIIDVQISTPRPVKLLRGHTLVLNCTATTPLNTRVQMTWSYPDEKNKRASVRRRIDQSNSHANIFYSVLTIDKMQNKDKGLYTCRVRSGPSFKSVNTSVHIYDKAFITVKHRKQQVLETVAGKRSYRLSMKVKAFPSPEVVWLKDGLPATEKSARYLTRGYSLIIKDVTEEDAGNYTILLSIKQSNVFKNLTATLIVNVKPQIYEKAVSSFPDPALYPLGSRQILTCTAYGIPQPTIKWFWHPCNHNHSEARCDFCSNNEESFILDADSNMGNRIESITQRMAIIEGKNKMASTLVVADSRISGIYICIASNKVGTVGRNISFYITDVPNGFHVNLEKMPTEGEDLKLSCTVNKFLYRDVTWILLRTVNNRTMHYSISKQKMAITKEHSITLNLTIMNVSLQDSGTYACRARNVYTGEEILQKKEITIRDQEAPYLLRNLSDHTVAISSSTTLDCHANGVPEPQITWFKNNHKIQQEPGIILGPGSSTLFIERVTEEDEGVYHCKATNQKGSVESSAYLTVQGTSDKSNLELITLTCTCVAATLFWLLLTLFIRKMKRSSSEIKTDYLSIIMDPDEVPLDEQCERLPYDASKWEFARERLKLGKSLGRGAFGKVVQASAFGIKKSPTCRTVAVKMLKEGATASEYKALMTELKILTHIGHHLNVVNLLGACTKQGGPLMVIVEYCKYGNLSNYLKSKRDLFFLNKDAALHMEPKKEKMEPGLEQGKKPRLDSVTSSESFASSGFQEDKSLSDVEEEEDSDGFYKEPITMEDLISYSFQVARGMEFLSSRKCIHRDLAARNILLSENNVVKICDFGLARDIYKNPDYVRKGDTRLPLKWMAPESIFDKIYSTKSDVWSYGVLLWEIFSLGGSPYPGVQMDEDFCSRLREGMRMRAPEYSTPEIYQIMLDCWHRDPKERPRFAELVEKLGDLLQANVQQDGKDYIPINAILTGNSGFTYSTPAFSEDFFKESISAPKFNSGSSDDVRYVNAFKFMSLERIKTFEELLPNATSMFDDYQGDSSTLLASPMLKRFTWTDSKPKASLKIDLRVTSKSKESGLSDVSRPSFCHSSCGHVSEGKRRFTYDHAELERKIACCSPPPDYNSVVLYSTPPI

BRAF = target: T4, BRAF (Homo sapiens, UniProt P15056); conditions: single dose of 10 µM; 10 µM ATP as printed; read-out: Percent Inhibition, BRAF
T4 construct: purchased Reaction Biology Corp
T4 sequence (P15056 whole entry): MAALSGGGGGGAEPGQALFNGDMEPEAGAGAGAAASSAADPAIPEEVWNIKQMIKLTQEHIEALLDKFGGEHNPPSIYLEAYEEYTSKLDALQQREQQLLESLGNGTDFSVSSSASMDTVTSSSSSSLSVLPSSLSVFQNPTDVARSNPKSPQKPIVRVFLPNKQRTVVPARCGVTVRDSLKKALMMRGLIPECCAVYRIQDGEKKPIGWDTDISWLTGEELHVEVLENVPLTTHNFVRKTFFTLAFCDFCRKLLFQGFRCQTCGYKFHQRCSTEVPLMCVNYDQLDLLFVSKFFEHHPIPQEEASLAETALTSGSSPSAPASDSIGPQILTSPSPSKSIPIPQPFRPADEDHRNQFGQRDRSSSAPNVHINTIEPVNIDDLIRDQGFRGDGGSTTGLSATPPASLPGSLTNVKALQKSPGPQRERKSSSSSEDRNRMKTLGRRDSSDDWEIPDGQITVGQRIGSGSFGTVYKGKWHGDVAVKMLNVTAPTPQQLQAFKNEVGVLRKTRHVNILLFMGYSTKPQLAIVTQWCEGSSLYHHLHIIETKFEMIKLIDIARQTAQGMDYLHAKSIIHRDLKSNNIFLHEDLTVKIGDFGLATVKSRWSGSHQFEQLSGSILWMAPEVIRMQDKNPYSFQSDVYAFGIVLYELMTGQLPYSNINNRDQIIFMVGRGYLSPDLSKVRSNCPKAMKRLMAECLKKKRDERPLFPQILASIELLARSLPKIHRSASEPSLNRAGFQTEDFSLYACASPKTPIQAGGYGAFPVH

COc1ccc(Oc2nc(Nc3ccc(N4CCOCC4)cc3)ncc2NC(=O)c2ccc3c(c2)OCO3)cc1 [5a, N-(4-(4-Methoxyphenoxy)-2-((4-morpholinophenyl)amino)pyrimidin-5-yl)benzo[d][1,3]dioxole-5-carboxamide] gave an inhibition at 10 µM (JAK3) of 11.2 ± 1.2%, an inhibition at 10 µM (c-MER) of 4.4 ± 0.1% and an inhibition at 10 µM (FLT1/VEGFR1) of -2.4 ± 1.7%. For the same compound, the inhibition at 10 µM (BRAF) was 4.1 ± 10.5%.
